In US6693174B2, “Gene regulating aureobasidin sensitivity” (Takara Shuzo Co., Ltd., priority 1993, dated 2004):
Converted amounts (≈) assume the structure as drawn. *1 amine or outer side, *2 acyl side, *3 side chain or, on linkers, in order; H or OH if unused. Where a SMILES comes first, the peptide text is derived from it. [ ]: non-standard residue; d: D form. X1 = CC[C@@H](C)[C@@H](O[*:1])C(=O)[*:2]; NMeVal(β-OH) = CN[C@H](C(=O)O)C(C)(C)O; NMeF = CN[C@@H](Cc1ccccc1)C(=O)O; aIle = CC[C@@H](C)[C@H](N)C(=O)O; NMeV = CN[C@H](C(=O)O)C(C)C

What was measured:
[1] = test system: A. nidulans FGSC89 aureobasidin resistant colonies; assay: Drug resistance of aureobasidin resistant mutants of A. nidulans; settings: for sensitivities of the resistant cells compared with the parent strain: UV-induced resistant colonies vs FGSC89
C. krusei = C. krusei TIMM No. 0270; cited from earlier work
Rhodotorula rubra = Rhodotorula rubra TIMM No. 0923; cited from earlier work
Histoplasma capsulatum = settings: cited from earlier work
A. nidulans = A. nidulans TIMM No. 0112; cited from earlier work
NRK-49F = assay: MIC of aureobasidin, test strain or cell (Table 3); assay type: cell-based
[2] = test system: C. albicans TIMM0136 transformants; assay: MIC for C. albicans transformants obtained with SalI-linearized pUscaur1R-C; assay type: cell-based, Candida albicans; settings: C. albicans TIMM0136 transformants by SalI-linearized pUscaur1R-C
Method: 14-a) 5 μg of a linear plasmid, which had been prepared by cleaving pUscaur1^R-C with SalI capable of cleaving at one point in the pUC119 region, was transformed into C. albicans TIMM0136 by the lithium acetate method.

[3] = test system: Sake yeast Kyokai K-701/pAUR1; assay: Aureobasidin sensitivity of transformant after subculture without aureobasidin A; settings: K-701/pAUR1 vs Sake yeast Kyokai K-701
Blastomyces dermatitidis = Blastomyces dermatitidis TIMM No. 0126; cited from earlier work
A. fumigatus = A. fumigatus TIMM No. 0063; cited from earlier work
C. guilliermondii = C. guilliermondii TIMM No. 0257; cited from earlier work
[4] = test system: C. albicans var. stellatoidea; settings: C. albicans var. stellatoidea TIMM No. 1308; cited from earlier work
Schizo. pombe = assay: MIC of aureobasidin, test strain or cell (Table 3); assay type: cell-based, Schizosaccharomyces pombe
[5] = test system: Sake yeast Kyokai K-701 transformants; assay: Aureobasidin A resistance of sake yeast transformants obtained with StuI-linearized plasmids; settings: transformants by StuI-linearized plasmids, after subculture over several generations
C. albicans = C. albicans TIMM No. 0136; cited from earlier work
A. terreus = A. terreus TIMM No. 0120; cited from earlier work
S. cerevisiae = assay: MIC of aureobasidin, test strain or cell (Table 3); assay type: cell-based, Saccharomyces cerevisiae
C. glabrata = C. glabrata TIMM No. 1062; cited from earlier work
A. nidulans FGSC89 = assay: Sensitivity of parent strain to aureobasidin
Cr. neoformans = Cr. neoformans TIMM No. 0354; cited from earlier work
Exophiala werneckii = Exophiala werneckii TIMM No. 1334; cited from earlier work
Epidermophyton floccosum = Epidermophyton floccosum TIMM No. 0431; cited from earlier work
[6] = cited from earlier work
S. cerevisiae DKD5D = assay: Sensitivity of parent strain to aureobasidin; assay type: cell-based, Saccharomyces cerevisiae
Method: (§1) Then resistant mutants were separated on an agar plate of a complete nutritional medium YPD (1% of yeast extract, 2% of polypeptone, 2% of glucose) containing 5 μg/ml or 1.5 μg/ml of aureobasidin A. After repeating the mutagenesis several times, 34 mutant clones were obtained.

[7] = test system: Paracoccidioides brasiliensis; settings: Paracoccidioides brasiliensis TIMM No. 0880; cited from earlier work
Cladosporium bantianum = Cladosporium bantianum TIMM No. 0343; cited from earlier work
[8] = test system: Sake yeast Kyokai K-701 transformants; assay: Aureobasidin A resistance of sake yeast transformants obtained with pYCscaur1R-C; settings: transformants by pYCscaur1R-C, after subculture over several generations
Geotrichum candidum = Geotrichum candidum TIMM No. 0694; cited from earlier work
Fonsecaea pedrosoi = Fonsecaea pedrosoi TIMM No. 0482; cited from earlier work
mouse lymphoma EL-4 = assay: MIC of aureobasidin, test strain or cell (Table 3); assay type: cell-based
[9] = test system: Schizo. pombe haploid cell strain JY745; assay: Sensitivity of parent strain to aureobasidin
[10] = test system: Schizo. pombe diploid cells (resistant strains x LH121); assay: Resistance of diploids formed by crossing resistant strains with normal strain LH121; assay type: cell-based, Schizosaccharomyces pombe; settings: five diploids, resistant strains crossed with LH121
[11] = test system: Trichophyton mentagrophytes; settings: Trichophyton mentagrophytes TIMM No. 1189; cited from earlier work
C. tropicalis = C. tropicalis TIMM No. 0312; cited from earlier work
mouse lymphoma L5178Y = assay: MIC of aureobasidin, test strain or cell (Table 3); assay type: cell-based
Cr. terreus = Cr. terreus TIMM No. 0424; cited from earlier work
[12] = in contrast to existing antimycotics with only a fungistatic action; cited from earlier work
Penicillium commune = Penicillium commune TIMM No. 1331; cited from earlier work
[13] = test system: S. cerevisiae DKD5D resistant mutant clones; assay: Resistance of aureobasidin resistant mutants of S. cerevisiae; assay type: cell-based, Saccharomyces cerevisiae; settings: 34 EMS mutant clones of DKD5D
Method: as §1

C. parapsilosis = C. parapsilosis TIMM No. 0287; cited from earlier work
C. kefyr = C. kefyr TIMM No. 0298; cited from earlier work
A. clavatus = A. clavatus TIMM No. 0056; cited from earlier work

For `C[C@@H]1C[C@@H]([C@H](O)CC2CC(=O)NC(=O)C2)C(=O)[C@@H](C)C1` [cycloheximide], the “sensitivities of the resistant cells compared with the parent strain” value (“sensitivities … compared with the parent strain” for short) [1] was “the same as the parent strain”.

For `C[C@@H]1[C@H](O)[C@@H](C)/C=C/C=C/C=C/C=C/C=C/C=C/C=C/[C@H](O[C@@H]2O[C@H](C)[C@@H](O)[C@H](N)[C@@H]2O)C[C@@H]2O[C@](O)(C[C@@H](O)C[C@@H](O)[C@H](O)CC[C@@H](O)C[C@@H](O)CC(=O)O[C@H]1C)C[C@H](O)[C@H]2C(=O)O` [amphotericin B], the “sensitivities … compared with the parent strain” value [1] was “the same as the parent strain”.

In the case of `CC[C@@H](C)[C@@H]1NC(=O)[C@@H]2CCCN2C(=O)[C@H](Cc2ccccc2)N(C)C(=O)[C@H](Cc2ccccc2)NC(=O)[C@H](C(C)C)N(C)C(=O)[C@@H]([C@H](C)CC)OC(=O)[C@H](C(C)(C)O)N(C)C(=O)[C@H](CC(C)C)NC(=O)[C@H](C(C)C)N(C)C1=O` [aureobasidin A] (cyclo(F[NMeF]P[aIle][NMeV]L[NMeVal(β-OH)][X1][NMeV])), the MIC (C. krusei) is listed as “≦0.04 μg/ml”, the MIC (Rhodotorula rubra) is listed as 0.63 µg/mL (≈ 0.572 µM) and the MIC (Histoplasma capsulatum) is listed as 0.16 µg/mL (≈ 0.145 µM). The MIC (A. nidulans) was 0.16 µg/mL (≈ 0.145 µM), the MIC (NRK-49F) was 12.5 µg/mL and the MIC [2] was ≥ 10 µg/mL. The “aureobasidin resistance relative to the parent strain” value [3] was “eight times”, the MIC (Blastomyces dermatitidis) was 0.31 µg/mL (≈ 0.281 µM) and the MIC (A. fumigatus) was 20 µg/mL (≈ 18.2 µM). For the same compound, the MIC (C. guilliermondii) was 0.08 µg/mL (≈ 0.0726 µM), the MIC [4] was “≦0.04 μg/ml” and the MIC (Schizo. pombe) was 0.08 µg/mL. For the same compound, the “aureobasidin A resistance relative to the parent strain” value [5] was “at least 10 times”, the MIC (C. albicans) was “≦0.04 μg/ml” and the MIC (A. terreus) was 5 µg/mL (≈ 4.54 µM). The MIC (S. cerevisiae) was 0.31 µg/mL, the MIC (C. glabrata) was “≦0.04 μg/ml” and the “sensitivity to aureobasidin at” value (A. nidulans FGSC89) was 5 µg/mL. The MIC (Cr. neoformans) was 0.63 µg/mL (≈ 0.572 µM), the MIC (Exophiala werneckii) was 1.25 µg/mL (≈ 1.13 µM) and the “resistance to (concentration of aureobasidin)” value ([1]; eight UV-induced resistant colonies) was 80 µg/mL. For the same compound, the MIC (Epidermophyton floccosum) was 2.5 µg/mL (≈ 2.27 µM), the toxicity in mammal [6] was “extremely low toxicity” and the “sensitivity to aureobasidin at a concentration of” value (S. cerevisiae DKD5D) was 0.31 µg/mL. The MIC [7] was 0.31 µg/mL (≈ 0.281 µM), the MIC (Cladosporium bantianum) was 0.63 µg/mL (≈ 0.572 µM) and the “aureobasidin A resistance relative to the parent strain” value [8] was “at least 10 times”. For the same compound, the MIC (Geotrichum candidum) was 0.63 µg/mL (≈ 0.572 µM), the MIC (Fonsecaea pedrosoi) was 0.31 µg/mL (≈ 0.281 µM) and the MIC (mouse lymphoma EL-4) was 10 µg/mL. The “sensitivity to aureobasidin at a concentration of” value [9] was 0.08 µg/mL, the “resistant to (concentration of aureobasidin A)” value [10] was 25 µg/mL and the MIC [11] was 10 µg/mL (≈ 9.08 µM). For the same compound, the MIC (C. tropicalis) was 0.08 µg/mL (≈ 0.0726 µM), the MIC (mouse lymphoma L5178Y) was 100 µg/mL and the MIC (Cr. terreus) was 0.31 µg/mL (≈ 0.281 µM). For the same compound, the “action (germicidal versus fungistatic)” value [12] was “germicidal action”, the MIC (Penicillium commune) was 1.25 µg/mL (≈ 1.13 µM) and the “resistant to (concentration of aureobasidin A)” value [13] was “more than 25 μg/ml”. For the same compound, the MIC (C. parapsilosis) was 0.16 µg/mL (≈ 0.145 µM), the MIC (C. kefyr) was 0.16 µg/mL (≈ 0.145 µM) and the MIC (A. clavatus) was 0.16 µg/mL (≈ 0.145 µM).

For `Clc1ccccc1C(c1ccccc1)(c1ccccc1)n1ccnc1` [clotrimazole], the “sensitivities … compared with the parent strain” value [1] was “the same as the parent strain”.
